In brackets after ≈: the same amount, converted by molar mass.
Assays:
[1] = tested on: Staphylococcus aureus; assay: Antibacterial activity against Staphylococcus aureus ATCC 25923 after 18 to 24 hrs by microdilution assay; assay type: functional
[2] = tested on: Enterococcus faecalis; assay: Antibacterial activity against Enterococcus faecalis ATCC 29212 after 18 to 24 hrs by microdilution assay; assay type: functional
[3] = tested on: Staphylococcus aureus; assay: Antibacterial activity against methicillin and vancomycin intermediate resistant Staphylococcus aureus MU50 after 18 to 24 hrs by microdilution assay; assay type: functional
[4] = tested on: Staphylococcus aureus; assay: Antibacterial activity against community-acquired methicillin and erythromycin resistant Staphylococcus aureus SA 325 after 18 to 24 hrs by microdilution assay; assay type: functional
[5] = tested on: Staphylococcus aureus; assay: Antibacterial activity against hospital-acquired methicillin and vacomycin resistant Staphylococcus aureus VRS-1 after 18 to 24 hrs by microdilution assay; assay type: functional
[6] = tested on: Staphylococcus aureus; assay: Antibacterial activity against methicillin and linezolid resistant Staphylococcus aureus NRS 119 clinical isolate after 18 to 24 hrs by microdilution assay; assay type: functional
[7] = biological target: T1, D-alanine--D-alanine ligase (Enterococcus faecalis (strain ATCC 700802 / V583), UniProt Q47758); assay: Inhibition of Enterococcus faecalis JH2-2 C-terminal 6His-tagged DdlB expressed in Escherichia coli LMG194 preincubated for 30 mins followed by substrate addition and measured after 20 mins by Biomol Green reagent assay
T1 sequence (Q47758 whole entry): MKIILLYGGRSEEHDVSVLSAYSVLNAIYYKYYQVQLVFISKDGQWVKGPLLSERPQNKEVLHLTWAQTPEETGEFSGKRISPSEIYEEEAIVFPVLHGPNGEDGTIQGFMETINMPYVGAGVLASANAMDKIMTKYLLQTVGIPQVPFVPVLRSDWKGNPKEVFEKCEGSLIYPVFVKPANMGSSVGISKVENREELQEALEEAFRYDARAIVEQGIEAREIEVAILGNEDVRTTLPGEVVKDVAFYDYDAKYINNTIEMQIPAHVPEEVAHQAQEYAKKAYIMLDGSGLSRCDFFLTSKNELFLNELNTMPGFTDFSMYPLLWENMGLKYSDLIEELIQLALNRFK

[8] = tested on: Staphylococcus aureus; assay: Antibacterial activity against hospital-acquired methicillin/ciprofloxacin/moxifloxacin resistant Staphylococcus aureus SA 481 after 18 to 24 hrs by microdilution assay; assay type: functional
[9] = tested on: Enterococcus faecalis; assay: Antibacterial activity against vancomycin-resistant Enterococcus faecalis JH2-2::C1 after 18 to 24 hrs by microdilution assay; assay type: functional
[10] = tested on: Enterococcus faecalis; assay: Antibacterial activity against vancomycin-resistant Enterococcus faecalis BM 4390 after 18 to 24 hrs by microdilution assay; assay type: functional
[11] = tested on: Enterococcus faecalis; assay: Antibacterial activity against vancomycin-resistant Enterococcus faecalis BM 4575 clinical isolate after 18 to 24 hrs by microdilution assay; assay type: functional

| Structure (SMILES) | MIC [1] [µM] | MIC [2] [µM] | MIC [3] [µM] | MIC [4] [µM] | MIC [5] [µM] | MIC [6] [µM] | IC50 [7] [nM] | MIC [8] [µM] | MIC [9] [µM] | MIC [10] [µM] | MIC [11] [µM] |
| --- | --- | --- | --- | --- | --- | --- | --- | --- | --- | --- | --- |
| O=C(NNC(=S)Nc1ccc(Cl)c(Cl)c1)c1ccc(O)cc1 | > 100 | > 400 | – | – | – | – | – | – | – | – | – |
| O=C(NNC(=S)Nc1ccc(Cl)cc1)c1ccccc1 | > 100 | > 400 | – | – | – | – | – | – | – | – | – |
| O=C(NNC(=S)Nc1ccccc1)c1ccccc1O | > 100 | > 400 | > 100 | > 100 | > 100 | > 100 | 800 | > 100 | > 100 | > 100 | > 100 |
| O=C(NNC(=S)Nc1ccc(Cl)cc1)c1ccccc1O | > 100 | > 400 | > 100 | > 100 | > 100 | > 100 | 830 | > 100 | > 100 | > 100 | > 100 |
| O=C(NNC(=S)Nc1ccc(Cl)c(Cl)c1)c1cc2ccccc2cc1O | > 100 | > 400 | > 100 | > 100 | > 100 | > 100 | 560 | > 100 | > 100 | > 100 | > 100 |
| O=C(NNC(=S)Nc1ccc(F)cc1)c1ccccc1O | > 100 | 200 (≈ 61.1 µg/mL) | > 100 | > 100 | > 100 | > 100 | 840 | > 100 | > 100 | > 100 | > 100 |
| O=C(NNC(=S)Nc1ccc(OC(F)(F)F)cc1)c1ccccc1O | 25 (≈ 9.28 µg/mL) | 50 (≈ 18.6 µg/mL) | > 100 | 100 (≈ 37.1 µg/mL) | > 100 | 100 (≈ 37.1 µg/mL) | 700 | > 100 | 100 (≈ 37.1 µg/mL) | > 100 | > 100 |
| CC(=O)c1ccc(NC(=S)NNC(=O)c2ccccc2O)cc1 | 25 (≈ 8.23 µg/mL) | 50 (≈ 16.5 µg/mL) | > 100 | > 100 | > 100 | > 100 | 370 | > 100 | > 100 | > 100 | > 100 |
| COc1ccc(NC(=S)NNC(=O)c2ccccc2O)cc1 | > 100 | > 400 | > 100 | > 100 | > 100 | > 100 | 710 | > 100 | > 100 | > 100 | > 100 |
| O=C(NNC(=S)NCCCN1CCOCC1)c1ccccc1O | > 100 | > 400 | > 100 | > 100 | > 100 | > 100 | – | > 100 | > 100 | > 100 | > 100 |
| COc1ccccc1NC(=S)NNC(=O)c1ccccc1O | > 100 | > 400 | > 100 | > 100 | > 100 | > 100 | 550 | > 100 | > 100 | > 100 | > 100 |
| CN[C@H](CC(C)C)C(=O)N[C@H]1C(=O)N[C@@H](CC(N)=O)C(=O)N[C@H]2C(=O)N[C@H]3C(=O)N[C@H](C(=O)N[C@H](C(=O)O)c4cc(O)cc(O)c4-c4cc3ccc4O)[C@H](O)c3ccc(c(Cl)c3)Oc3cc2cc(c3O[C@@H]2O[C@H](CO)[C@@H](O)[C@H](O)[C@H]2O[C@H]2C[C@](C)(N)[C@H](O)[C@H](C)O2)Oc2ccc(cc2Cl)[C@H]1O [VANCOMYCIN] | – | – | 5 (≈ 7.25 µg/mL) | – | > 175 | 0.7 (≈ 1.01 µg/mL) | – | – | 350 (≈ 507 µg/mL) | 700 (≈ 1010 µg/mL) | – |
| O=C(NNC(=S)Nc1ccc(Cl)c(Cl)c1)c1cccc(O)c1 | > 100 | > 400 | – | – | – | – | – | – | – | – | – |
| CCCCCNC(=S)NNC(=O)c1ccccc1O | > 100 | > 400 | > 100 | > 100 | > 100 | > 100 | 930 | > 100 | > 100 | > 100 | > 100 |
| O=C(NNC(=S)Nc1cccc(Cl)c1)c1ccccc1 | > 100 | > 400 | – | – | – | – | – | – | – | – | – |
| O=C(NNC(=S)Nc1cccc(F)c1)c1ccccc1O | > 100 | 200 (≈ 61.1 µg/mL) | > 100 | > 100 | > 100 | > 100 | 100 | > 100 | > 100 | > 100 | > 100 |
| O=C(NNC(=S)Nc1ccc(OCc2ccccc2)cc1)c1ccccc1O | 100 (≈ 39.3 µg/mL) | > 400 | > 100 | > 100 | > 100 | > 100 | 990 | > 100 | > 100 | > 100 | > 100 |
| O=C(NNC(=S)Nc1ccccc1Cl)c1ccccc1O | > 100 | 400 (≈ 129 µg/mL) | > 100 | 100 (≈ 32.2 µg/mL) | 100 (≈ 32.2 µg/mL) | 100 (≈ 32.2 µg/mL) | 790 | 100 (≈ 32.2 µg/mL) | > 100 | > 100 | > 100 |
| O=C(NNC(=S)Nc1ccc(Cl)cc1Cl)c1ccccc1O | 50 (≈ 17.8 µg/mL) | 50 (≈ 17.8 µg/mL) | 50 (≈ 17.8 µg/mL) | 50 (≈ 17.8 µg/mL) | 25 (≈ 8.91 µg/mL) | 25 (≈ 8.91 µg/mL) | 580 | 50 (≈ 17.8 µg/mL) | 50 (≈ 17.8 µg/mL) | 25 (≈ 8.91 µg/mL) | 25 (≈ 8.91 µg/mL) |

| Structure (SMILES) | MIC [1] [µM] | MIC [2] [µM] | MIC [3] [µM] | MIC [4] [µM] | MIC [5] [µM] | MIC [6] [µM] | IC50 [7] [nM] | MIC [8] [µM] | MIC [9] [µM] | MIC [10] [µM] | MIC [11] [µM] |
| --- | --- | --- | --- | --- | --- | --- | --- | --- | --- | --- | --- |
| O=C(NNC(=S)Nc1cccc(F)c1)c1ccccc1 | > 100 | > 400 | – | – | – | – | – | – | – | – | – |
| O=C(NNC(=S)Nc1ccc(F)cc1)c1ccccc1 | > 100 | > 400 | – | – | – | – | – | – | – | – | – |
| O=C(NNC(=S)Nc1cccc(Cl)c1)c1ccccc1O | 100 (≈ 32.2 µg/mL) | 400 (≈ 129 µg/mL) | > 100 | 100 (≈ 32.2 µg/mL) | > 100 | > 100 | 630 | > 100 | > 100 | > 100 | > 100 |
| Nc1ccc(C(=O)NNC(=S)Nc2ccc(Cl)c(Cl)c2)c(O)c1 | > 100 | > 400 | > 100 | > 100 | > 100 | > 100 | 990 | > 100 | > 100 | > 100 | > 100 |
| O=C(NNC(=S)Nc1cccnc1)c1ccccc1O | 50 (≈ 14.4 µg/mL) | 50 (≈ 14.4 µg/mL) | > 100 | > 100 | > 100 | > 100 | – | > 100 | > 100 | > 100 | > 100 |
| O=C(NNC(=S)Nc1ccc(Cl)c(Cl)c1)c1ccccc1 | > 100 | > 100 | – | – | – | – | – | – | – | – | – |
| O=C(NNC(=S)Nc1cccc2ccccc12)c1ccccc1O | > 100 | > 400 | > 100 | > 100 | > 100 | > 100 | 520 | > 100 | > 100 | > 100 | > 100 |
| O=C(NNC(=S)Nc1ccccc1Cl)c1ccccc1 | > 100 | > 400 | – | – | – | – | – | – | – | – | – |
| O=C(O)c1cn(C2CC2)c2cc(N3CCNCC3)c(F)cc2c1=O [CIPROFLOXACIN] | – | – | – | – | – | – | – | 770 (≈ 255 µg/mL) | – | – | – |
| O=C(NNC(=O)c1ccccc1O)Nc1ccc(Cl)c(Cl)c1 | > 100 | > 100 | – | – | – | – | – | – | – | – | – |
| O=C(NNC(=S)Nc1ccc([N+](=O)[O-])cc1)c1ccc(O)cc1 | > 100 | > 400 | – | – | – | – | – | – | – | – | – |
| O=C(NNC(=S)Nc1cccc(I)c1)c1ccccc1O | > 100 | > 400 | > 100 | > 100 | > 100 | > 100 | 730 | > 100 | > 100 | > 100 | > 100 |
| O=C(NNC(=S)Nc1ccccc1F)c1ccccc1 | > 100 | > 400 | – | – | – | – | – | – | – | – | – |
| CC(=O)NC[C@H]1CN(c2ccc(N3CCOCC3)c(F)c2)C(=O)O1 [LINEZOLID] | – | – | 3 (≈ 1.01 µg/mL) | – | – | 190 (≈ 64.1 µg/mL) | – | – | – | – | – |
| O=C(NNC(=S)Nc1ccccc1F)c1ccccc1O | > 100 | 200 (≈ 61.1 µg/mL) | > 100 | > 100 | > 100 | > 100 | 970 | > 100 | > 100 | > 100 | > 100 |
| O=C(NNC(=O)c1ccccc1)Nc1ccc(Cl)c(Cl)c1 | > 100 | > 100 | – | – | – | – | – | – | – | – | – |
| N#Cc1ccc(NC(=S)NNC(=O)c2ccccc2O)cc1 | > 100 | 100 (≈ 31.2 µg/mL) | > 100 | > 100 | > 100 | > 100 | 510 | > 100 | > 100 | > 100 | > 100 |
| O=c1c2ccccc2ncn1NC(=S)Nc1ccccc1 | > 100 | > 400 | – | – | – | – | – | – | – | – | – |

Source: ChEMBL document CHEMBL4382202, “1-(2-Hydroxybenzoyl)-thiosemicarbazides are promising antimicrobial agents targeting d-alanine-d-alanine ligase in bacterio” (Eur J Med Chem, 2018)
